Assay results as given in US20110105393A1, “METHODS FOR PROMOTING STEM CELL PROLIFERATION AND SURVIVAL” (priority 2007, published 2011).

Key:
mTOR = mTOR phosphorylation in NSC cultures (Western blot); type: cell-based, mouse
Method: (§1) Cell culture: E13.5 cortical embryonic mouse CNS stem cells were grown as previously described (Johe, et al., Genes Dev 10, 3129-40, 1996). Cells were expanded in serum-free DMEM/F12 medium with N2 supplement and FGF2 (20 ng/ml) for 5 days under 5% oxygen conditions and were re-plated fresh or from frozen stocks at 1,000-10,000 cells per cm^2. FGF2 was included throughout the studies, unless otherwise stated. Adult rat (3-6 months old) or adult mouse (2-4 months old) SVZ NSC cultures were grown in the same medium as the fetal cultures.
(§2) Fetal NSCs in culture express Ang-1, and treatment (2 days) with Dll4 maintained it whereas CNTF reduced it. Ang-2 expression was maintained under these conditions. […] Ang-2 induced mTOR and STAT3-S727 phosphorylation, unlike Ang-1 (FIG. 2a). Ang-1, however, induced Akt phosphorylation.
Three characterized Tie-2 receptor antibodies were used to determine if the Tie-2 receptor was expressed in the immature neural precursor cells found in the SVZ of the adult brain. When ligand is bound, the Tie-2 receptor becomes phosphorylated. An antibody that recognizes the activated receptor (RnD Systems, AF2720) and another antibody that binds to a distinct site (Santa Cruz, sc-324) identified many positive cells in the subventricular zone of the adult rat brain. In regions that were more distant from the ventricle, Tie-2 was expressed predominantly on blood vessels and endothelial cells reacted with antibodies against the activated receptor. Precursor cells that proliferate in vitro can be readily derived from the fetal and adult brain. The homogeneity of these cell populations in attached culture and their potential to generate neurons and glia is supported by clonal analysis. […] This colony number assay measured the survival of precursor cells that could differentiate into neurons and glia (See, Table 1).

Tie-2 receptor = assay: Tie-2 phosphorylation in fetal neural cells (Western blot); type: cell-based, mouse; conditions: exogenous addition, Western blot (FIG. 10a)
Method: (§3) Cell Culture: E13.5 cortical embryonic mouse CNS stem cells were grown as previously described (Johe et al., Genes Dev 10, 3129, 1996). Cells were expanded in serum-free DMEM/F12 medium with N2 supplement and FGF2 (20 ng/ml) for 5 days under 5% oxygen conditions and were re-plated fresh or from frozen stocks at 1,000-10,000 cells per cm^2. FGF2 was included throughout our experiments, unless otherwise stated. Adult rat (3-6 months old) or adult mouse (2-4 months old) SVZ Neural Stem Cell (NSC) cultures were grown in the same medium as the fetal cultures.
(§4) Pharmacological treatments: Unless otherwise stated, we used the following concentrations: Dll4 and Ang2 (in vitro, 500 ng/ml; in vivo 12.5 μg as a single injection), FGF2 (in vitro, 20 ng/ml), JAK inhibitor (in vitro, 200 nM; in vivo, 250 ng as a single injection), insulin (in vitro, 25 μg/ml; in vivo, 40 μg as a single injection), DAPT (1 μM), Fluorogold (0.5 μg). […]
Three characterized Tie-2 receptor antibodies were used to determine if the Tie-2 receptor was expressed in the immature neural precursor cells found in the SVZ of the adult brain. […] Precursor cells that proliferate in vitro can be readily derived from the fetal and adult brain. […] This colony number assay measured the survival of precursor cells that could differentiate into neurons and glia (See, Table 1).

adult rat SVZ NSCs = assay: Expansion of adult rat SVZ NSC / neural precursor cultures; type: cell-based
Method: as §1
Pharmacological treatments: Unless otherwise stated, the following concentrations were used: Dll4 and Ang-2 (in vitro, 500 ng/ml; in vivo 12.5 μg as a single injection), FGF2 (in vitro, 20 ng/ml), JAK inhibitor (in vitro, 200 nM; in vivo, 250 ng as a single injection), insulin (in vitro, 25 μg/ml; in vivo, 40 μg as a single injection), DAPT (1 μM), Fluorogold (0.5 μg). For the survival assays, compounds were added daily and Notch ligands every 2 days for the duration of the experiment. For the effects of kinase inhibitors on Notch activation, cells were pre-incubated for 1 h prior to Notch activation.
as §3, §4

Hes3 = Hes3 protein immuno-staining in fetal NSC cultures; type: cell-based, mouse; conditions: 2 day treatment
Method: as §1
Hes3 mRNA is present in fetal NSC cultures under conditions that support their self-renewal but CNTF-induced differentiation (Bonni, A. et al., Science 278, 477-83, 1997; Rajan & McKay, J Neurosci 18, 3620-9, 1998): downregulates Hes3 message (Androutsellis-Theotokis, A. et al., Nature 442, 823-6, 2006). Knockout studies have shown a role of Hes3 in self-renewal (Hatakeyama, J. et al., Development 131, 5539-50, 2004). It was investigated if Hes3 mediates stem cell functions in vitro to assess its use as a functional NSC marker. Fetal (E13.5) cortical tissue was dissociated and magnetic sorting was used to isolate a cell population that expressed AC133, an established marker of NSCs (Uchida, N. et al., Proc Natl Acad Sci USA 97, 14720-5, 2000). […]

Ang-1 = Ang-1 expression in fetal NSC cultures; type: cell-based, mouse; conditions: fetal NSCs in culture, treatment 2 days
Method: as §1, §2

| Substance | mTOR phosphorylation (mTOR; NSC cultures, 0.5 μg/ml (FIG. 2a, Example 3)) | effect on mTOR (mTOR; Western blots, fetal neural cells (FIG. 10a, Example 9)) | phosphorylation of Tie-2 (Tie-2 receptor) | generation of adult rat SVZ NSCs in vitro (adult rat SVZ NSCs; 0.5 μg/ml, 5-d (FIG. 2b)) | colony formation and overall cell numbers (adult rat SVZ NSCs; adult rat SVZ NSC cultures treated with Dll4) | increase in the numbers of proliferating cells (adult rat SVZ NSCs; cells from adult SVZ in culture, added to Dll4, insulin and FGF2, p=2.15×10^−5 (FIG. 10b)) [fold] | pathology associated with the 6OHDA lesion (single intraventricular injection 2 weeks after lesion) | risk of bleeding (summary of in vivo treatments) | Hes3 protein expression (Hes3) | Ang-1 expression (Ang-1) |
| --- | --- | --- | --- | --- | --- | --- | --- | --- | --- | --- |
| Ang-2: human angiopoietin-2 (623-AN) from R&D; antagonist for angiopoietin-1 at Tie2 | induced | no effect | promoted phosphorylation | profoundly increased | significantly increased | 7 | hemorrhage and an enlarged ventricle | increases the risk of bleeding | – | – |
| Dll4: Notch ligand Delta-like 4; mouse Dll4 (1389-D4) from R&D | – | – | – | – | – | – | – | – | maintained | maintained |
